Results taken from patent US7122570B2, “Tetrahydrocarbazol derivatives as ligands for G-protein-coupled receptors (GPCR)” (Zentaris AG, priority 2001, dated 2006).

Assays:
[1] = target: T1, GnRH receptor (Homo sapiens, UniProt P30968); assay: Functional reporter gene assay (luciferase) in LTK cells carrying GnRH receptors, triptorelin stimulation; assay type: cell-based; set-up: expressed in transfected cells; host or cells: LTK cells (ATCC No. CCL-1.3), stably transfected, with CRE / CMV minimal promoter luciferase reporter; conditions: inhibition of triptorelin/Rolipram-stimulated luciferase reporter
T1 sequence (P30968 1-328): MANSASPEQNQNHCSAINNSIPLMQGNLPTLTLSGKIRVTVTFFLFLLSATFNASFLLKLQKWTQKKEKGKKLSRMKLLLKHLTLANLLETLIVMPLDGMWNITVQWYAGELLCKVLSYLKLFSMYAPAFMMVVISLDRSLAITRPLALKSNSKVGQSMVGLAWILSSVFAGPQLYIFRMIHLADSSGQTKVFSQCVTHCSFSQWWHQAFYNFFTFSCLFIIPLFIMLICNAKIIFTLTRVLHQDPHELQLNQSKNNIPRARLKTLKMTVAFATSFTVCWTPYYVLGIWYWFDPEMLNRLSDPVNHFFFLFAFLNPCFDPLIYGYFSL
Description: Functional Reporter Gene Assay
For performing functional tests, stable, transfixed LTK cells carrying GnRH receptors (ATCC No. CCL-1.3) with a heterologous expression of cAMP responsible elements as well as a CMV minimal promoter-driven luciferase reporter gene are used.
(§1) The cells are cultivated in DMEM medium (Invitrogen Life Technologies, Germany) with penicillin (100 I.U./ml), streptomycin (0.1 mg/ml) and glutamine (0.01 mol/l) and 10% fetal calf serum (FCS; Invitrogen Life Technologies, Germany) on plastic tissue culture plates (Nunc, Germany, 245×245×20 mm).
80% confluent cell culture plates are washed twice with 50 ml of phosphate-buffered salt solution (PBS) and subsequently dissolved with trypsin EDTA solution (Invitrogen Life Technologies, Germany). The cells are pelletized by centrifuging at 200×g for 5 minutes in a laboratory centrifuge (Kendro, Germany). The cell pellet is resuspended in 3 ml of assay medium (Invitrogen Life Technologies, Germany) with penicillin (100 I.U./ml), streptomycin (0.1 mg/ml) and glutamine (0.01 mol/l) and 10% fetal calf serum (FCS; Invitrogen Life Technologies, Germany), and the cell count is determined by means of trypan blue staining in a Neubauer counting chamber. The cell suspension is set with assay medium to a concentration of 1×10^4 Z/100 μl. The cells are suspended on white 96-well microtiter plates (Costar, Germany) and incubated for 18 hours in an incubator.
To perform tests, test substances are diluted as 10 mmol DMSO solutions in assay medium to 6× the final concentration used. 25 μl of the test substance is added to 100 μl cells and incubated for 60 minutes at 37° C., 5% CO2. Then, the addition of triptorelin (D-Trp6-GnRH)/Rolipram solution (6 mmol/6 mmol) and a renewed incubation are carried out for 6 hours at 37° C., 5% CO2.
After incubation, the addition of 50 μl of lysis/detection buffer (LucLite, PE Life Science) and the measurement in a Lumistar luminometer (BMG Labtechnologies GmBH, Germany) are carried out.
The evaluation of the samples is carried out after calculating the inhibition in comparison to untreated stimulated cells, after removal of non-stimulated controls, by means of GraphPad Prism (GraphPad Software, Inc., USA) or alternately by means of OMMM (Accelrys, Germany) Software.

[2] = target: T1, GnRH receptor; assay: Receptor binding assay with 125I-triptorelin on transfected LTK cells; conditions: competition with 125I-triptorelin, whole LTK cells, 60 minutes at 37° C.
Description: ^125I-Triptorelin [^125I-(D)-Trp6-GnRH] is ordered from the Biotrend Company (Cologne, Germany). The specific activity in each case is 2.13 Ci/mmol. All other chemicals are ordered from commercial sources at the highest available purity.
as §1, with “Transfixed LTK′” for “The”, “cells (ATCC No. CCL-11.3)” for “cells”, “nun).” for “mm).”
80% confluent cell culture plates are washed twice with 50 ml of phosphate-buffered salt solution (PBS) and dissolved below with 0.01 M EDTA solution. The cells are pelletized by centrifuging at 200×g for 5 minutes in a laboratory centrifuge (Kendro, Germany). The cell pellet is resuspended in 3 ml of binding medium (DMEM; 10 mmol of Hepes; 0.5% BSA; 0.1% NaN3; 1 g/l of bacitracin (freshly added, stock 100×); 0.1 g/l of SBTI (freshly added, stock 1000×), and the cell count is determined by means of trypan blue staining in a Neubauer counting chamber. The cell suspension is set with binding medium to a concentration of 5×10^5 Z/0.05 ml.
Binding tests for competition curves are performed as duplicates. The test substances are used as 10 mmol DMSO solutions. They are diluted with binding medium to 4× the final concentration used. 25 μl of the substance dilution is mixed with 25 μl of tracer solution (^125I-triptorelin). The concentration of tracer is set to about 50,000 cpm (measured in Cobra II, γ-counter, PE Liefe Science, Germany) in the final reaction volume of 100 μl.
200 μl of a silicone/paraffin oil mixture (84%:16%) is introduced into 650 μl pointed-bottom tubes (Roth, Germany). 50 μl of the cell suspension is pipetted thereto and subsequently 50 μl of the test substance/tracer mixture. The tubes are sealed and incubated for 60 minutes at 37° C. in an incubator that rotates via the top. After incubation, the samples are centrifuged in a centrifuge (Kendro, Germany) at 900 rpm and subsequently flash-frozen in liquid N2. The tip with the cell pellet is cut off and inserted into the prepared counting tube (Roth, Germany). The remainder of the pointed-bottom tube with the remaining supernatant is also inserted into a counting tube. The measurement is made in a γ-counter for 1 minute/sample.
The evaluation of the samples is carried out after calculating the specific bond in comparison to untreated cells, after the unspecific bond (excess unlabeled ligand, 1 mmol) is removed by means of GraphPad Prism (GraphPad Software Inc., USA).

| EC50 [1] | EC50 [2] | Structure (SMILES) |
| --- | --- | --- |
| 324 nM | 475 nM | CC[C@H](C)[C@H](NC(=O)[C@@]1(NC(=O)[C@H](Cc2ccc(O)cc2)NC(=O)OCc2ccccc2)CCc2[nH]c3c(Cl)cc(Cl)cc3c2C1)C(N)=O [Compound 302, Phenylmethyl [(1S)-1-[[[(3R)-3-[[[(1S,2S)-1-(aminocarbonyl)-2-methylbutyl]amino]carbonyl]-6,8-dichloro-2,3,4,9-tetrahydro-1H-carbazol-3-yl]amino]car-bonyl]-2-(4-hydroxyphenyl)-ethyl]carbamate] |
| 18 nM | 38 nM | CC[C@H](C)[C@H](NC(=O)[C@@]1(NC(=O)[C@H](CCc2ccccc2)NC(=O)OCc2ccccc2)CCc2[nH]c3c(Cl)cc(Cl)cc3c2C1)C(N)=O [Compound 304, Phenylmethyl [(1S)-1-[[[(3R)-3-[[[(1S,2S)-1-(aminocarbonyl)-2-methylbutyl]amino]carbonyl]-6,8-dichloro-2,3,4,9-tetrahydro-1H-carbazol-3-yl]amino]car-bonyl]-3-phenylpropyl]carbamate] |
